Test results as given in PMC12028158, “Synthesis and In Vitro Evaluation of the Anticancer Effect of Novel Phosphonium Vindoline Derivatives” (International Journal of Molecular Sciences, 2025).

What was measured:
Assay type in all cases: cell-based
CCRF-CEM = experiment: NCI60 five-dose screen; details: Homo sapiens
MOLT-4 = experiment: NCI60 five-dose screen; details: Homo sapiens, MOLT-4
RPMI-8226 = experiment: NCI60 five-dose screen; details: Homo sapiens, RPMI-8226
HOP-92 = experiment: NCI60 five-dose screen; details: Homo sapiens, HOP-92
NCI-H226 [1] = experiment: NCI60 five-dose screen; details: Homo sapiens, NCI-H226
NCI-H460 = experiment: NCI60 five-dose screen; details: Homo sapiens, NCI-H460
COLO 205 = experiment: NCI60 five-dose screen; details: Homo sapiens, COLO 205
HCC-2998 = experiment: NCI60 five-dose screen; details: Homo sapiens, HCC 2998
HT29 [2] = experiment: NCI60 five-dose screen; details: Homo sapiens, HT-29
SW-620 = experiment: NCI60 five-dose screen; details: Homo sapiens, SW-620
UACC-62 = experiment: NCI60 five-dose screen; details: Homo sapiens, UACC-62
OVCAR-4 = experiment: NCI60 five-dose screen; details: Homo sapiens, OVCAR-4
OVCAR-5 [3] = experiment: NCI60 five-dose screen; details: Homo sapiens, OVCAR-5
786-0 = experiment: NCI60 five-dose screen; details: Homo sapiens, 786-0
A498 [4] = experiment: NCI60 five-dose screen; details: Homo sapiens, A498
CAKI-1 [5] = experiment: NCI60 five-dose screen; details: Homo sapiens, CAKI-1
RXF 393 [6] = experiment: NCI60 five-dose screen; details: Homo sapiens, RXF 393
DU-145 [7] = experiment: NCI60 five-dose screen; details: Homo sapiens, DU-145
HS 578T = experiment: NCI60 five-dose screen; details: Homo sapiens, Hs-578T
BT-549 [8] = experiment: NCI60 five-dose screen; details: Homo sapiens, BT-549
CNS Cancer panel = experiment: NCI60 five-dose screen, panel mean; details: Homo sapiens, read-out: Mean GI50
Breast Cancer panel = experiment: NCI60 five-dose screen, panel mean; details: Homo sapiens, read-out: Mean GI50
HL-60(TB) = experiment: NCI60 one-dose screen; details: Homo sapiens, HL-60, read-out: Growth percent
EKVX = experiment: NCI60 one-dose screen; details: Homo sapiens, read-out: Growth percent
HOP-62 = experiment: NCI60 one-dose screen; details: Homo sapiens, HOP-62, read-out: Growth percent
NCI-H226 [9] = experiment: NCI60 one-dose screen; details: Homo sapiens, NCI-H226, read-out: Growth percent
HCT-116 = experiment: NCI60 one-dose screen; details: Homo sapiens, HCT-116, read-out: Growth percent
HCT-15 = experiment: NCI60 one-dose screen; details: Homo sapiens, HCT-15, read-out: Growth percent
HT29 [10] = experiment: NCI60 one-dose screen; details: Homo sapiens, HT-29, read-out: Growth percent
U251 = experiment: NCI60 one-dose screen; details: Homo sapiens, U-251, read-out: Growth percent
LOX IMVI = experiment: NCI60 one-dose screen; details: Homo sapiens, read-out: Growth percent
OVCAR-3 = experiment: NCI60 one-dose screen; details: Homo sapiens, OVCAR-3, read-out: Growth percent
OVCAR-5 [11] = experiment: NCI60 one-dose screen; details: Homo sapiens, OVCAR-5, read-out: Growth percent
NCI/ADR-RES = experiment: NCI60 one-dose screen; details: Homo sapiens, read-out: Growth percent
A498 [12] = experiment: NCI60 one-dose screen; details: Homo sapiens, A498, read-out: Growth percent
ACHN = experiment: NCI60 one-dose screen; details: Homo sapiens, read-out: Growth percent
CAKI-1 [13] = experiment: NCI60 one-dose screen; details: Homo sapiens, CAKI-1, read-out: Growth percent
RXF 393 [14] = experiment: NCI60 one-dose screen; details: Homo sapiens, RXF 393, read-out: Growth percent
UO-31 = experiment: NCI60 one-dose screen; details: Homo sapiens, UO-31, read-out: Growth percent
PC-3 = experiment: NCI60 one-dose screen; details: Homo sapiens, PC-3, read-out: Growth percent
DU-145 [15] = experiment: NCI60 one-dose screen; details: Homo sapiens, DU-145, read-out: Growth percent
MDA-MB-231/ATCC = experiment: NCI60 one-dose screen; details: Homo sapiens, MDA-MB-231, read-out: Growth percent
BT-549 [16] = experiment: NCI60 one-dose screen; details: Homo sapiens, BT-549, read-out: Growth percent
T-47D = experiment: NCI60 one-dose screen; details: Homo sapiens, T47D, read-out: Growth percent
MDA-MB-468 = experiment: NCI60 one-dose screen; details: Homo sapiens, MDA-MB-468, read-out: Growth percent
[17] = tested on: 60 human tumor cell lines (NCI60); experiment: NCI60 one-dose screen, overall mean; details: Homo sapiens, 60 cell, read-out: Mean growth percent

SMILES: CC[C@]12C=CCN3CC[C@@]4(c5ccc(OC)cc5N(C)[C@H]4[C@@](O)(C(=O)OC)[C@@H]1OC(=O)CCC[P+](c1ccccc1)(c1ccccc1)c1ccccc1OC)[C@@H]32 [9f]
- GI50 (CCRF-CEM): 256 nM
- GI50 (MOLT-4): 419 nM
- GI50 (RPMI-8226): 106 nM
- GI50 (HOP-92): 172 nM
- GI50 (NCI-H226 [1]): 1210 nM
- GI50 (NCI-H460): 774 nM
- GI50 (COLO 205): 179 nM
- GI50 (HCC-2998): 325 nM
- GI50 (HT29 [2]): 356 nM
- GI50 (SW-620): 637 nM
- GI50 (UACC-62): 286 nM
- GI50 (OVCAR-4): 540 nM
- GI50 (OVCAR-5 [3]): 735 nM
- GI50 (786-0): 1980 nM
- GI50 (A498 [4]): 2650 nM
- GI50 (CAKI-1 [5]): 1900 nM
- GI50 (RXF 393 [6]): 247 nM
- GI50 (DU-145 [7]): 418 nM
- GI50 (HS 578T): 473 nM
- GI50 (BT-549 [8]): 262 nM
- GI50 (CNS Cancer panel): 570 nM
- GI50 (Breast Cancer panel): 310 nM
- activity at 10 µM (HL-60(TB)): -5.95%
- activity at 10 µM (EKVX): -8.21%
- activity at 10 µM (HOP-62): -13.7%
- activity at 10 µM (NCI-H226 [9]): -38.6%
- activity at 10 µM (HCT-116): -51%
- activity at 10 µM (HCT-15): 30.7%
- activity at 10 µM (HT29 [10]): -57.8%
- activity at 10 µM (U251): -96.9%
- activity at 10 µM (LOX IMVI): -95.7%
- activity at 10 µM (OVCAR-3): -75%
- activity at 10 µM (OVCAR-5 [11]): 10.6%
- activity at 10 µM (NCI/ADR-RES): 75.9%
- activity at 10 µM (A498 [12]): -10.4%
- activity at 10 µM (ACHN): 0.6%
- activity at 10 µM (CAKI-1 [13]): -40.2%
- activity at 10 µM (RXF 393 [14]): -83.6%
- activity at 10 µM (UO-31): 44%
- activity at 10 µM (PC-3): 4.74%
- activity at 10 µM (DU-145 [15]): 1.94%
- activity at 10 µM (MDA-MB-231/ATCC): -94.5%
- activity at 10 µM (BT-549 [16]): -64.2%
- activity at 10 µM (T-47D): -25%
- activity at 10 µM (MDA-MB-468): -84.6%
- activity at 10 µM [17]: -45.4%
